Measured values reported in patent US20240197650A1, “Combination of Cinnamaldheyde and Eugenol with Antimycotic Activity” (priority 2021, published 2024).
≈ marks a conversion by molar mass, not a printed value.

Legend:
[1] = Additional essential oils in combination with cinnamaldehyde or eugenol; conditions: antimycotic activity
[2] = tested on: Candida spp.; assay: Disk diffusion method, 18 Candida spp. strains (distribution); type: cell-based
Protocol: (§1) A total of eighteen strains belonging to Candida spp. (15 C. albicans, 2 C. glabrata and 1 C. lusitaniae) derived from a collection of vaginal strains isolated in CHROMAgar Candida (BD Italia SpA, Milan, Italy) were grown on Potato Dextrose Agar (Oxoid Thermofisher SpA, Milan, Italy) at 35° C. for 24 hours.
(§2) Colonies were re-suspended in sterile saline at a density corresponding to #0.5 McFarland (opacity standard). #0.5 McF correspond to 1.4×10^6 colony forming units (CFU)/ml for C. albicans, 4.3×10^6 CFU/ml for C. glabrata and 3×10^6 CFU/ml for C. lusitaniae [Guinea J. et al., Rapid antifungal susceptibility determination for yeast isolates by use of Etest performed directly on blood samples from patients with fungemia, J Clin Microbiol. 2010 June, 48(6): 2205-12]. Then, the sensitivity test vs the two oils has been performed. The disk diffusion method was carried out as follows: for each tested strain, 4 plates of Potato Dextrose Agar (PDA) were seeded in 3 directions to produce a confluent growth, by sterile swab soaked in the cell suspension. Sorbent paper disks (Oxoid Thermofisher SpA, Milan, Italy) 6.0 mm diameter were placed on the agar surface and added with 10 μl of each essential oil. Disks soaked with 10 μg amphotericin B were used as positive control. Also disks of chlortrimazole (from 10 μg to 40 μg) were used, but the inhibition rings could not be clearly read due to the formation of a re-growth ring. Disks soaked with 10 μl pure dimethylsulphoxide (DMSO, Sigma-Aldrich, St. Louis, MO, USA) were used as negative control. The plates were incubated at 35° C. for 24 hours. All the experiments were carried out in duplicate. The inhibiting effect of the oils were considered to be effective when the inhibition ring was equal or greater than that caused by amphotericin B. For amphotericin B, an inhibition zone (IZ)≥15 mm was considered as “sensitivity”, from 10 to 14 mm as “intermediate sensitivity” and <10 mm as “resistance” [Kauser et al., Agreement of Direct Antifungal Susceptibility Testing from Positive Blood Culture Bottles with Conventional Method for Candida Species, J Clin Microbiol. 2016 February, 54(2):343-34].

[3] = tested on: C. lusitaniae; assay: Microdilution method MIC/MFC, C. lusitaniae strain; type: cell-based; conditions: C. lusitaniae 1
Protocol: as §1
(§3) The antifungal activity of amphotericin B and of cinnamaldheyde and eugenol were tested with the microdilution method as reported by Bona et al. [Bona et al., Sensitivity of Candida albicans to essential oils: are they an alternative to antifungal agents? J Appl Microbiol. 2016 December, 121(6): 1530-1545] with small changes. All the 18 Candida spp strains were tested. For each isolated, the colonies deriving from cultures (24 hours) in PDA were diluted in saline up to a concentration of 2×10^3 CFU/ml (so obtaining a final concentration of 10 3CGU/ml). Cinnamaldehyde and eugenol were dissolved in DMSO (80% oil, 20% DMSO), then diluted in Sabouraud broth up to a concentration of 8% v/v (so obtaining a final concentration of 4% v/v). Then, in a 96-well microtiter plate ½ serial dilution of amphotericin B (range 32-0.032 μg/ml, for a final range of 16-0.016 μg/ml) and of the essential oils (range 8-0.004% v/v, for a final range of 4-0.002% v/v) were carried out. Each well was then injected with 100 μl of cell suspension. The negative control contained DMSO diluted in Sabouraud broth (at 2% v/v, for a final concentration of 1% v/v). […] Each experiment was carried out in duplicate. The Minimum Inhibitory Concentration (MIC) was determined as the concentration of the oils in the first well which is not cloudy. The Minimum Fungicidal Concentration (MFC) was determined as the lowest concentration of the oils, with the agar culture showing the complete absence of fungal growth. The determination of the amphotericin B MIC was carried out also according to the EUCAST guidelines (cutoff 1 μg/ml) [https://eucast.org/astoffungi/clinicalbreakpointsforantifungals], all the results being consistent.

[4] = tested on: C. lusitaniae; assay: Disk diffusion method, C. lusitaniae strain; type: cell-based; conditions: C. lusitaniae 1
Protocol: as §1
Colonies were re-suspended in sterile saline at a density corresponding to #0.5 McFarland (opacity standard). #0.5 McF correspond to 1.4×10^6 colony forming units (CFU)/ml for C. albicans, 4.3×10^6 CFU/ml for C. glabrata and 3×10^6 CFU/ml for C. lusitaniae [Guinea J. et al., Rapid antifungal susceptibility determination for yeast isolates by use of Etest performed directly on blood samples from patients with fungemia, J Clin Microbiol. 2010 June, 48(6): 2205-12]. Then, the sensitivity test vs the two oils has been performed. The disk diffusion method was carried out as follows: for each tested strain, 4 plates of Potato Dextrose Agar (PDA) were seeded in 3 directions to produce a confluent growth, by sterile swab soaked in the cell suspension. Sorbent paper disks (Oxoid Thermofisher SpA, Milan, Italy) 6.0 mm diameter were placed on the agar surface and added with 10 μl of each essential oil. Disks soaked with 10 μg amphotericin B were used as positive control. Also disks of chlortrimazole (from 10 μg to 40 μg) were used, but the inhibition rings could not be clearly read due to the formation of a re-growth ring. Disks soaked with 10 μl pure dimethylsulphoxide (DMSO, Sigma-Aldrich, St. Louis, MO, USA) were used as negative control. The plates were incubated at 35° C. for 24 hours. All the experiments were carried out in duplicate. […]

[5] = tested on: C. glabrata; assay: Disk diffusion method, C. glabrata strains; type: cell-based
Protocol: as §1, §2

[6] = tested on: Candida spp.; assay: Microdilution method MIC/MFC, 18 Candida spp. strains (distribution); type: cell-based; conditions: 18 strains
Protocol: as §1, §3

[7] = tested on: C. albicans; assay: Disk diffusion method, C. albicans strains; type: cell-based
Protocol: as §1, §2

[8] = tested on: C. glabrata; assay: Microdilution method MIC/MFC, C. glabrata strains; type: cell-based
Protocol: as §1, §3

[9] = tested on: C. albicans; assay: Microdilution method MIC/MFC, C. albicans strains; type: cell-based
Protocol: as §1, §3

[10] = 18 strains, disk 10 μl oil or 10 μg amphotericin B, 35° C. 24 hours

SMILES: CC1=CCC2CC1C2(C)C (stereo not drawn) [α-pinene]
- advantage when administered in combination with cinnamaldehyde or eugenol [1]: did not show any advantage

SMILES: C[C@@H]1[C@H](O)[C@@H](C)/C=C/C=C/C=C/C=C/C=C/C=C/C=C/[C@H](O[C@@H]2O[C@H](C)[C@@H](O)[C@H](N)[C@@H]2O)C[C@@H]2O[C@](O)(C[C@@H](O)C[C@@H](O)[C@H](O)CC[C@@H](O)C[C@@H](O)CC(=O)O[C@H]1C)C[C@H](O)[C@H]2C(=O)O [Amphotericin B, amphotericin B, reference compound]
- inhibition rings diameter, average (including 6.0 mm of the disk) [2, 10]: 15.4 mm
- inhibition rings diameter, range (including 6.0 mm of the disk) [2, 10]: 10-20.5 mm
- category of the inhibition rings ([2]; all 18 strains, confirmed by microdilution): “sensitivity” or “intermediate sensitivity”
- MFC [3]: 0.250 mg/L (≈ 0.271 µM)
- MIC [3]: 0.125 mg/L (≈ 0.135 µM)
- Diameters of the inhibition rings (including 6.0 mm of the disk) [4]: 10.0 mm
- Diameters of the inhibition rings (including 6.0 mm of the disk) ([5]; C. glabrata 1): 15.0 mm
- Diameters of the inhibition rings (including 6.0 mm of the disk) ([5]; C. glabrata 2): 11.0 mm
- MFC average [6]: 0.11 mg/L (≈ 0.119 µM)
- MIC average [6]: 0.052 mg/L (≈ 0.0563 µM)
- Diameters of the inhibition rings (including 6.0 mm of the disk) ([7]; C. albicans 1): 13.0 mm
- Diameters of the inhibition rings (including 6.0 mm of the disk) ([7]; C. albicans 2): 15.5 mm
- Diameters of the inhibition rings (including 6.0 mm of the disk) ([7]; C. albicans 3): 16.0 mm
- Diameters of the inhibition rings (including 6.0 mm of the disk) ([7]; C. albicans 4): 19.5 mm
- Diameters of the inhibition rings (including 6.0 mm of the disk) ([7]; C. albicans 5): 16.0 mm
- Diameters of the inhibition rings (including 6.0 mm of the disk) ([7]; C. albicans 6): 16.0 mm
- Diameters of the inhibition rings (including 6.0 mm of the disk) ([7]; C. albicans 7): 16.0 mm
- Diameters of the inhibition rings (including 6.0 mm of the disk) ([7]; C. albicans 8): 20.5 mm
- Diameters of the inhibition rings (including 6.0 mm of the disk) ([7]; C. albicans 9): 12.0 mm
- Diameters of the inhibition rings (including 6.0 mm of the disk) ([7]; C. albicans 10): 15.0 mm
- Diameters of the inhibition rings (including 6.0 mm of the disk) ([7]; C. albicans 11): 14.5 mm
- Diameters of the inhibition rings (including 6.0 mm of the disk) ([7]; C. albicans 12): 16.5 mm
- Diameters of the inhibition rings (including 6.0 mm of the disk) ([7]; C. albicans 13): 16.0 mm
- Diameters of the inhibition rings (including 6.0 mm of the disk) ([7]; C. albicans 14): 19.0 mm
- Diameters of the inhibition rings (including 6.0 mm of the disk) ([7]; C. albicans 15): 15.5 mm
- MFC ([8]; C. glabrata 1): 0.064 mg/L (≈ 0.0693 µM)
- MIC ([8]; C. glabrata 1): 0.032 mg/L (≈ 0.0346 µM)
- MFC ([8]; C. glabrata 2): 0.125 mg/L (≈ 0.135 µM)
- MIC ([8]; C. glabrata 2): 0.125 mg/L (≈ 0.135 µM)
- MFC ([9]; C. albicans 1): 0.064 mg/L (≈ 0.0693 µM)
- MIC ([9]; C. albicans 1): 0.032 mg/L (≈ 0.0346 µM)
- MFC ([9]; C. albicans 2): 0.064 mg/L (≈ 0.0693 µM)
- MIC ([9]; C. albicans 2): 0.032 mg/L (≈ 0.0346 µM)
- MFC ([9]; C. albicans 3): 0.064 mg/L (≈ 0.0693 µM)
- MIC ([9]; C. albicans 3): 0.032 mg/L (≈ 0.0346 µM)
- MFC ([9]; C. albicans 4): 0.125 mg/L (≈ 0.135 µM)
- MIC ([9]; C. albicans 4): 0.032 mg/L (≈ 0.0346 µM)
- MFC ([9]; C. albicans 5): 0.250 mg/L (≈ 0.271 µM)
- MIC ([9]; C. albicans 5): 0.016 mg/L (≈ 0.0173 µM)
- MFC ([9]; C. albicans 6): 0.064 mg/L (≈ 0.0693 µM)
- MIC ([9]; C. albicans 6): 0.032 mg/L (≈ 0.0346 µM)
- MFC ([9]; C. albicans 7): 0.064 mg/L (≈ 0.0693 µM)
- MIC ([9]; C. albicans 7): 0.032 mg/L (≈ 0.0346 µM)
- MFC ([9]; C. albicans 8): 0.032 mg/L (≈ 0.0346 µM)
- MIC ([9]; C. albicans 8): 0.016 mg/L (≈ 0.0173 µM)
- MFC ([9]; C. albicans 9): 0.250 mg/L (≈ 0.271 µM)
- MIC ([9]; C. albicans 9): 0.125 mg/L (≈ 0.135 µM)
- MFC ([9]; C. albicans 10): 0.032 mg/L (≈ 0.0346 µM)
- MIC ([9]; C. albicans 10): 0.032 mg/L (≈ 0.0346 µM)
- MFC ([9]; C. albicans 11): 0.250 mg/L (≈ 0.271 µM)
- MIC ([9]; C. albicans 11): 0.125 mg/L (≈ 0.135 µM)
- MFC ([9]; C. albicans 12): 0.016 mg/L (≈ 0.0173 µM)
- MIC ([9]; C. albicans 12): ≤0.016 mg/L
- MFC ([9]; C. albicans 13): 0.125 mg/L (≈ 0.135 µM)
- MIC ([9]; C. albicans 13): 0.064 mg/L (≈ 0.0693 µM)
- MFC ([9]; C. albicans 14): 0.125 mg/L (≈ 0.135 µM)
- MIC ([9]; C. albicans 14): 0.032 mg/L (≈ 0.0346 µM)
- MFC ([9]; C. albicans 15): 0.064 mg/L (≈ 0.0693 µM)
- MIC ([9]; C. albicans 15): 0.032 mg/L (≈ 0.0346 µM)
